Consider one compound from ChEMBL document CHEMBL5729352, “Broad spectrum antiviral compositions and methods” (2022).

Molecules are shown by their SMILES. pIC50: −log10 of the molar value.

The assay can be described thus: Assessing Antiviral Activity Against Human Cytomegalovirus (HCMV): To assess their antiviral activity, some compounds were tested against human cytomegalovirus (HCMV) in vitro. Human […] cells were grown to confluency (˜1.0×10^4 cells/well) in 96-well plate format in Dulbecco's Modified Eagle Medium (DMFM) supplemented with 10% fetal bovine serum (FBS) 2 mM L-glutamine, 0.1 mM non-essential amino acids, 10 mM HEPES, and 100 U/ml each of penicillin and streptomycin and infected with an HCMV variant expressing mCherry tagged pUL99 (the product of late viral UL99 gene) at a multiplicity of 0.01 infectious unit (IU) per cell. Assays were performed in triplicate. One hour later, medium of the cells was replaced with fresh medium containing the indicated compounds at 25, 12.5, 6.25, 3.13, 1.56, 0.78, 0.39 μM or the carrier in which the compounds are dissolved (DMSO). Final concentration of DMSO was 0.5% in each treatment. Virus yield in the culture was determined at 7 days post infection by quantification of fluorescent (mCherry positive) cells in each well by fluorescent microscopy. Results were plotted using CDD Vault (CDD Vault was developed by Collaborative Drug Discovery, Inc., 1633 Bayshore Hwy, Suite 342, Burlingame, Calif. 94010) in order to calculate IC50s. It counts as cell-based.

On to `NC(=O)c1cccc(Cc2cnc(N3CCc4cc5c(cc4C3)OCCO5)s2)c1`, for which the pIC50 was 5.06.

Usually pIC50 stands for −log10 of the IC50, conventionally taken in molar units.
